# Tested on: Human immunodeficiency virus 1
# Assay: Antiviral activity against wild type HIV1 NLRepRlucP373S infected in human MT2 cells after 4 to 5 days by luciferase report gene based multiple cycle drug susceptibility assay
# Type: functional, organism-based
# Conditions: Human immunodeficiency virus 1, NLRepRlucP373S
row,Compound,EC50 [µM]
1,C=C(C)[C@@H]1CC[C@]2(C(=O)O)CC[C@]3(C)[C@H](CC[C@@H]4[C@@]5(C)CC=C(c6ccc(C#N)cc6)C(C)(C)[C@@H]5CC[C@]43C)[C@@H]12,> 1.6
2,C=C(C)[C@@H]1CC[C@]2(CO)CC[C@]3(C)[C@H](CC[C@@H]4[C@@]5(C)CC=C(c6ccc([N+](=O)[O-])cc6)C(C)(C)[C@@H]5CC[C@]43C)[C@@H]12,> 4
3,C=C(C)[C@@H]1CC[C@]2(CO)CC[C@]3(C)[C@H](CC[C@@H]4[C@@]5(C)CC=C(c6ccc(C(=O)O)c(C(=O)O)c6)C(C)(C)[C@@H]5CC[C@]43C)[C@@H]12,0.038
4,C=C(C)[C@@H]1CC[C@]2(C(=O)O)CC[C@]3(C)[C@H](CC[C@@H]4[C@@]5(C)CC[C@H](OC(=O)CC(C)(C)CC(=O)O)C(C)(C)[C@@H]5CC[C@]43C)[C@@H]12,0.004
5,C=C(C)[C@@H]1CC[C@]2(CO)CC[C@]3(C)[C@H](CC[C@@H]4[C@@]5(C)CC=C(c6csc(C(=O)O)c6)C(C)(C)[C@@H]5CC[C@]43C)[C@@H]12,0.38
6,C=C(C)[C@@H]1CC[C@]2(CO)CC[C@]3(C)[C@H](CC[C@@H]4[C@@]5(C)CC=C(c6ccc(NS(C)(=O)=O)cc6)C(C)(C)[C@@H]5CC[C@]43C)[C@@H]12,> 1.6
7,C=C(C)[C@@H]1CC[C@]2(C(=O)O)CC[C@]3(C)[C@H](CC[C@@H]4[C@@]5(C)CC=C(c6cccc(C(=O)O)c6)C(C)(C)[C@@H]5CC[C@]43C)[C@@H]12,> 8
8,C=C(C)[C@@H]1CC[C@]2(C(=O)O)CC[C@]3(C)[C@H](CC[C@@H]4[C@@]5(C)CC=C(c6ccc(C7(C(=O)O)CC7)cc6)C(C)(C)[C@@H]5CC[C@]43C)[C@@H]12,0.215
9,C=C(C)[C@@H]1CC[C@]2(C(=O)O)CC[C@]3(C)[C@H](CC[C@@H]4[C@@]5(C)CC=C(c6cccc(-c7nn[nH]n7)c6)C(C)(C)[C@@H]5CC[C@]43C)[C@@H]12,> 8
10,C=C(C)[C@@H]1CC[C@]2(C(=O)O)CC[C@]3(C)[C@H](CC[C@@H]4[C@@]5(C)CC=C(c6ccc(NC(=O)CCC(=O)O)cc6)C(C)(C)[C@@H]5CC[C@]43C)[C@@H]12,1.47
11,C=C(C)[C@@H]1CC[C@]2(C(=O)O)CC[C@]3(C)[C@H](CC[C@@H]4[C@@]5(C)CC=C(c6ccc(S(C)(=O)=O)cc6)C(C)(C)[C@@H]5CC[C@]43C)[C@@H]12,2.52
12,C=C(C)[C@@H]1CC[C@]2(CO)CC[C@]3(C)[C@H](CC[C@@H]4[C@@]5(C)CC=C(c6ccc(-c7nn[nH]n7)cc6)C(C)(C)[C@@H]5CC[C@]43C)[C@@H]12,3.4
13,C=C(C)[C@@H]1CC[C@]2(C(=O)O)CC[C@]3(C)[C@H](CC[C@@H]4[C@@]5(C)CC=C(c6cccc(S(=O)(=O)NC)c6)C(C)(C)[C@@H]5CC[C@]43C)[C@@H]12,1.23
14,C=C(C)[C@@H]1CC[C@]2(C(=O)O)CC[C@]3(C)[C@H](CC[C@@H]4[C@@]5(C)CC=C(c6ccc(O)cc6)C(C)(C)[C@@H]5CC[C@]43C)[C@@H]12,0.308

# Tested on: Human immunodeficiency virus 1
# Assay: Antiviral activity against wild type HIV1 NLRepRlucP373S infected in human MT2 cells after 4 to 5 days in presence of 15 mg/ml HSA by luciferase report gene based multiple cycle drug susceptibility assay
# Type: functional, organism-based
# Conditions: Human immunodeficiency virus 1, NLRepRlucP373S
row,Compound,EC50 [µM]
1,C=C(C)[C@@H]1CC[C@]2(CO)CC[C@]3(C)[C@H](CC[C@@H]4[C@@]5(C)CC=C(c6ccc([N+](=O)[O-])cc6)C(C)(C)[C@@H]5CC[C@]43C)[C@@H]12,> 4
2,C=C(C)[C@@H]1CC[C@]2(C(=O)O)CC[C@]3(C)[C@H](CC[C@@H]4[C@@]5(C)CC[C@H](OC(=O)CC(C)(C)CC(=O)O)C(C)(C)[C@@H]5CC[C@]43C)[C@@H]12,0.909
3,C=C(C)[C@@H]1CC[C@]2(CO)CC[C@]3(C)[C@H](CC[C@@H]4[C@@]5(C)CC=C(c6ccc(NS(C)(=O)=O)cc6)C(C)(C)[C@@H]5CC[C@]43C)[C@@H]12,> 1.6
4,C=C(C)[C@@H]1CC[C@]2(C(=O)O)CC[C@]3(C)[C@H](CC[C@@H]4[C@@]5(C)CC=C(c6ccc(O)cc6)C(C)(C)[C@@H]5CC[C@]43C)[C@@H]12,> 8

# Tested on: Human immunodeficiency virus 1
# Assay: Ratio of EC50 for HIV1 NLRepRlucP373S infected in human MT2 cells in presence of HSA to EC50 for HIV1 NLRepRlucP373S infected in human MT2 cells in absence of HSA
# Type: functional
# Conditions: not given
row,Compound,Ratio EC50
1,C=C(C)[C@@H]1CC[C@]2(C(=O)O)CC[C@]3(C)[C@H](CC[C@@H]4[C@@]5(C)CC[C@H](OC(=O)CC(C)(C)CC(=O)O)C(C)(C)[C@@H]5CC[C@]43C)[C@@H]12,227

# Tested on: Human immunodeficiency virus 1
# Assay: Antiviral activity against HIV1 containing gag V370A mutant infected in human MT2 cells after 4 to 5 days by luciferase report gene based multiple cycle drug susceptibility assay
# Type: functional, organism-based
# Conditions: Human immunodeficiency virus 1, MT2
row,Compound,EC50 [µM]
1,C=C(C)[C@@H]1CC[C@]2(CO)CC[C@]3(C)[C@H](CC[C@@H]4[C@@]5(C)CC=C(c6ccc([N+](=O)[O-])cc6)C(C)(C)[C@@H]5CC[C@]43C)[C@@H]12,> 4
2,C=C(C)[C@@H]1CC[C@]2(CO)CC[C@]3(C)[C@H](CC[C@@H]4[C@@]5(C)CC=C(c6ccc(C(=O)O)c(C(=O)O)c6)C(C)(C)[C@@H]5CC[C@]43C)[C@@H]12,0.212
3,C=C(C)[C@@H]1CC[C@]2(CO)CC[C@]3(C)[C@H](CC[C@@H]4[C@@]5(C)CC=C(c6csc(C(=O)O)c6)C(C)(C)[C@@H]5CC[C@]43C)[C@@H]12,> 2
4,C=C(C)[C@@H]1CC[C@]2(CO)CC[C@]3(C)[C@H](CC[C@@H]4[C@@]5(C)CC=C(c6ccc(NS(C)(=O)=O)cc6)C(C)(C)[C@@H]5CC[C@]43C)[C@@H]12,> 1.6
5,C=C(C)[C@@H]1CC[C@]2(C(=O)O)CC[C@]3(C)[C@H](CC[C@@H]4[C@@]5(C)CC=C(c6ccc(C7(C(=O)O)CC7)cc6)C(C)(C)[C@@H]5CC[C@]43C)[C@@H]12,0.633
6,C=C(C)[C@@H]1CC[C@]2(C(=O)O)CC[C@]3(C)[C@H](CC[C@@H]4[C@@]5(C)CC=C(c6ccc(NC(=O)CCC(=O)O)cc6)C(C)(C)[C@@H]5CC[C@]43C)[C@@H]12,1.57
7,C=C(C)[C@@H]1CC[C@]2(CO)CC[C@]3(C)[C@H](CC[C@@H]4[C@@]5(C)CC=C(c6ccc(-c7nn[nH]n7)cc6)C(C)(C)[C@@H]5CC[C@]43C)[C@@H]12,> 4

# Tested on: not listed separately
# Assay: Cytotoxicity against human MT2 cells assessed as cell viability by redox dye assay
# Type: cell-based
# Conditions: not given
row,Compound,CC50 [µM]
1,C=C(C)[C@@H]1CC[C@]2(C(=O)O)CC[C@]3(C)[C@H](CC[C@@H]4[C@@]5(C)CC=C(c6ccc(C#N)cc6)C(C)(C)[C@@H]5CC[C@]43C)[C@@H]12,4.45
2,C=C(C)[C@@H]1CC[C@]2(CO)CC[C@]3(C)[C@H](CC[C@@H]4[C@@]5(C)CC=C(c6ccc([N+](=O)[O-])cc6)C(C)(C)[C@@H]5CC[C@]43C)[C@@H]12,20
3,C=C(C)[C@@H]1CC[C@]2(CO)CC[C@]3(C)[C@H](CC[C@@H]4[C@@]5(C)CC=C(c6ccc(C(=O)O)c(C(=O)O)c6)C(C)(C)[C@@H]5CC[C@]43C)[C@@H]12,> 20
4,C=C(C)[C@@H]1CC[C@]2(C(=O)O)CC[C@]3(C)[C@H](CC[C@@H]4[C@@]5(C)CC[C@H](OC(=O)CC(C)(C)CC(=O)O)C(C)(C)[C@@H]5CC[C@]43C)[C@@H]12,4.25
5,C=C(C)[C@@H]1CC[C@]2(CO)CC[C@]3(C)[C@H](CC[C@@H]4[C@@]5(C)CC=C(c6csc(C(=O)O)c6)C(C)(C)[C@@H]5CC[C@]43C)[C@@H]12,14.1
6,C=C(C)[C@@H]1CC[C@]2(CO)CC[C@]3(C)[C@H](CC[C@@H]4[C@@]5(C)CC=C(c6ccc(NS(C)(=O)=O)cc6)C(C)(C)[C@@H]5CC[C@]43C)[C@@H]12,8.82
7,C=C(C)[C@@H]1CC[C@]2(C(=O)O)CC[C@]3(C)[C@H](CC[C@@H]4[C@@]5(C)CC=C(c6cccc(C(=O)O)c6)C(C)(C)[C@@H]5CC[C@]43C)[C@@H]12,13.8
8,C=C(C)[C@@H]1CC[C@]2(C(=O)O)CC[C@]3(C)[C@H](CC[C@@H]4[C@@]5(C)CC=C(c6ccc(C7(C(=O)O)CC7)cc6)C(C)(C)[C@@H]5CC[C@]43C)[C@@H]12,> 8
9,C=C(C)[C@@H]1CC[C@]2(C(=O)O)CC[C@]3(C)[C@H](CC[C@@H]4[C@@]5(C)CC=C(c6cccc(-c7nn[nH]n7)c6)C(C)(C)[C@@H]5CC[C@]43C)[C@@H]12,10.5
10,C=C(C)[C@@H]1CC[C@]2(C(=O)O)CC[C@]3(C)[C@H](CC[C@@H]4[C@@]5(C)CC=C(c6ccc(NC(=O)CCC(=O)O)cc6)C(C)(C)[C@@H]5CC[C@]43C)[C@@H]12,7.73
11,C=C(C)[C@@H]1CC[C@]2(C(=O)O)CC[C@]3(C)[C@H](CC[C@@H]4[C@@]5(C)CC=C(c6ccc(S(C)(=O)=O)cc6)C(C)(C)[C@@H]5CC[C@]43C)[C@@H]12,9.72
12,C=C(C)[C@@H]1CC[C@]2(CO)CC[C@]3(C)[C@H](CC[C@@H]4[C@@]5(C)CC=C(c6ccc(-c7nn[nH]n7)cc6)C(C)(C)[C@@H]5CC[C@]43C)[C@@H]12,34.3
13,C=C(C)[C@@H]1CC[C@]2(C(=O)O)CC[C@]3(C)[C@H](CC[C@@H]4[C@@]5(C)CC=C(c6cccc(S(=O)(=O)NC)c6)C(C)(C)[C@@H]5CC[C@]43C)[C@@H]12,13
14,C=C(C)[C@@H]1CC[C@]2(C(=O)O)CC[C@]3(C)[C@H](CC[C@@H]4[C@@]5(C)CC=C(c6ccc(O)cc6)C(C)(C)[C@@H]5CC[C@]43C)[C@@H]12,13.4
